US20190275022A1, “METHODS, COMPOSITIONS, AND COMPOUNDS FOR TREATMENT OF DERMATOLOGICAL AND OCULAR CONDITIONS” (Allergan, Inc., priority 2016, published 2019)
Like-named read-outs stand apart in the source and are kept apart here.

Key:
[1] = test system: lipopolysaccharide (LPS)-induced ocular inflammation model; test: LPS-induced ocular inflammation model, aqueous humor cells and protein, survival; assay type: in vivo; settings: for % Efficacy, Cell % Inhibition / % Efficacy, Protein % Inhibition: aqueous humor
Method: Male Lewis rats, weighing about 250 to 270 grams, were purchased from Charles River and used for all studies. Lipopolysaccharide (LPS) was made fresh in sterile saline (1 mg/ml), kept on ice, and administered by footpad injection at a total dose of 100 μg (100 μl) per animal. Twenty-four hours later, at the time of maximal inflammation in this model, the rats were euthanized by CO2 inhalation. Aqueous humor was collected and analyzed for protein concentration and cell counts.
For the calculation of the percentage of cell inhibition, the number of cells in treatment group were divided by the average number of cells in vehicle group times 100. For the calculation of the percentage of protein inhibition, the amount protein in treatment group was divided by the average protein in the vehicle group times 100.
Aqueous humor was collected from both eyes by anterior chamber puncture, performed under an operating microscope, using a 30-gauge needle and 25 μl Hamilton syringe (Catalog number 1702). aqueous humor from both eyes was pooled and kept on ice until further analysis.
Protein determination was carried out using a standard Bradford method. Cell counting was done by using either a hemocytometer or an automated cell counter (BioRad TC10).

[2] = test system: PMBC TNF; settings: data from literature; read-out: PMBC TNF Inhib. IC50; cited from earlier work
[3] = molecular target: human PDE4B2 (Homo sapiens, UniProt Q07343); test: Phosphodiesterase assay, recombinant human PDE4B2 ([3H]cAMP hydrolysis); assay type: biochemical
Method: A phosphodiesterase assay was performed using recombinant human PDE expressed in a baculoviral system.
The assay consisted of a two-step procedure. Tritium-labeled cyclic AMP was hydrolyzed to 5′-AMP by phosphodiesterase. The 5′-AMP was then further hydrolyzed to adenosine by nucleotidase in snake venom. An anion-exchange resin bound all charged nucleotides and left [^3H]adenosine as the only labeled compound to be counted by liquid scintillation.
All compounds were tested at a 10 μM starting concentration with a 1 in 3, 8 point IC50. […] The IC50 of each compound and the standard inhibitor (Rolipram) was determined. The standard inhibitor value was compared to historical assay data to ensure that it was within an acceptable range.

[4] = test system: Oxazolone (OXA) dermatitis in SKH1-E hairless mice; test: Oxazolone-induced dermatitis model, topical or oral treatment, SCORAD and resolved lesions; assay type: in vivo; settings: for day of statistically significant improvement in SCORAD clinical scores: topical, vs. vehicle
Method: Female SKH1-E hairless mice (Charles River) weighing approximately 25 g at 2-3 months of age were used in the following study. For model induction, the mice were sensitized on Day −7 (minus seven) by topical application of 50 μl of 5% Oxazolone (OXA) solubilized in ethanol on the hind flank. Dermatitis was elicited by repeated topical challenges with 50 μl of 0.1% Oxazolone every other day until the end of the study.
For administration of the test compounds, the test compounds were solubilized in a 70% ethanol/30% DMSO vehicle solution and kept at 4° C. Beginning on Day 0, the test compounds were administered twice daily (AM/PM) by topical application (50 μl volume) for 12 days. Betamethasone (0.12%) was used as a positive control and dosed once daily in the AM. Test article dosing and topical challenges were separated by at least 4 hours and all compounds were masked to investigators.
For clinical assessment, the degree of dermatitis was graded on a SCORAD (scoring atopic dermatitis) based scoring system of 0-3 (with 0=no symptoms, 1=Mild, 2=Moderate, 3=Severe) prior to challenge by a masked investigator.
(§1) For tissue collection, on the day of necropsy, animals were euthanized at 2 hours post final dose via CO2 inhalation with death verified by cervical dislocation. Whole blood was collected via cardiac puncture (˜250 μl) in EDTA/K^+ treated tubes for plasma analysis of drug concentrations. A rectangular strip of skin from the left side of treatment back area was collected for hematoxylin-eosin (H&E) stain. Prior to placing tissue in 10% formalin, the skin thickness was measured using a calibrated caliper (mm). Three 8 mm tissue punches were then collected from the right side of the treatment area and stored at −80° C. for cytokine protein (LUMINEX) or gene expression assays.

[5] = Plasma drug concentration after topical dosing in the dermatitis model (LC-MS/MS); assay type: in vivo
Method: as §1
The whole-blood samples collected in Example 2 were analyzed for drug concentrations. In particular, plasma samples were extracted by protein precipitation with acetonitrile and analyzed for drug concentrations by the bioanalytical laboratory using liquid chromatography tandem mass spectrometry (LC-MS/MS). Propranolol (200 ng/mL) was used as an internal standard for the extraction procedure. Working standards were prepared by series dilution (0.5 ng/mL) into acetonitrile from a stock solution of 10 ug/mL. All samples were analyzed using the API 5000 LC-MS/MS system in 0.1% formic acid in water.

[6] = Oral bio-availability; settings: in vivo
[7] = test system: plaque psoriasis; test: Example of treatment of plaque psoriasis (patient case); assay type: in vivo, human; settings: topical up to three times a day; after 1 to 4 months
Source text: A person presents with erythematous plaques covered with thick, silvery, shiny scales on the extensor surfaces of their elbows and knees. After a clinical evaluation, the patient is diagnosed with plaque psoriasis. The patient is prescribed a pharmaceutical composition containing an effective amount of the compound of Formula I with instructions to apply the composition topically to the plaques up to three times a day.

[8] = test system: dry eye disease; test: Example of treatment of dry eye disease (patient case); assay type: in vivo, human; settings: eye drops once a day; after about 1 to 2 months
Source text: A person presents with a history of having gritty, itchy and burning sensations in the both eyes which was previously generally diagnose as dry eye and has been treated with artificial tear drops applied topically to the eye as needed. The patient complains that the artificial tear solutions require too many applications per day. Medical evaluation of the patient results in the identification of the patient's dry eye disease as being dry eye disease where tear production is presumed to be suppressed due to ocular inflammation associated with the dry eye disease. The patient is prescribed eye drops containing an effective amount of the compound of Formula I with instructions to apply medication once a day.

[9] = test system: rosacea; test: Example of treatment of rosacea (patient case); assay type: in vivo, human; settings: topical one or twice a day; after about two days
Source text: A person presents with visible facial erythema and edema with telangiectases and visible papules and pustules resembling acne. […] Upon clinical examination, the patient is diagnosed with rosacea in its inflammatory phase. The patient is prescribed a topical composition comprising an effective amount of the compound of Formula I and instructed to apply the composition to the affected areas one or twice a day.

[10] = test system: pruritus, atopic dermatitis; test: Example of treatment of pruritus / atopic dermatitis (patient case); assay type: in vivo, human; settings: topical cream once a day
Source text: A person presents with a history of chronic relapsing atopic dermatitis (eczema), with severe itching, beginning. Their rash is characterized by red, itchy eruptions on cheeks and legs. Patient's parents stated that during a flare-up child is irritable at home and severe scratching disrupts sleep at night. Patient also feels very self-conscious of rash and is socially withdrawn at school during a flare-up. History of treatment have included lukewarm soaking baths and the use of over the counter emollients and creams. Topical calcineurin inhibitors were reported to exacerbate pruritus. The patient is prescribed a topical cream of the compound of Formula I with instructions to apply medication once day.

[11] = test system: PDE4 versus other PDEs
[12] = human PDE4B2, read-out: Enzymatic IC50
[13] = 0.01-0.5 mg/kg subcutaneously, dose dependent

Chain of human PDE4B2 (Q07343 1-564 isoform Q07343-2): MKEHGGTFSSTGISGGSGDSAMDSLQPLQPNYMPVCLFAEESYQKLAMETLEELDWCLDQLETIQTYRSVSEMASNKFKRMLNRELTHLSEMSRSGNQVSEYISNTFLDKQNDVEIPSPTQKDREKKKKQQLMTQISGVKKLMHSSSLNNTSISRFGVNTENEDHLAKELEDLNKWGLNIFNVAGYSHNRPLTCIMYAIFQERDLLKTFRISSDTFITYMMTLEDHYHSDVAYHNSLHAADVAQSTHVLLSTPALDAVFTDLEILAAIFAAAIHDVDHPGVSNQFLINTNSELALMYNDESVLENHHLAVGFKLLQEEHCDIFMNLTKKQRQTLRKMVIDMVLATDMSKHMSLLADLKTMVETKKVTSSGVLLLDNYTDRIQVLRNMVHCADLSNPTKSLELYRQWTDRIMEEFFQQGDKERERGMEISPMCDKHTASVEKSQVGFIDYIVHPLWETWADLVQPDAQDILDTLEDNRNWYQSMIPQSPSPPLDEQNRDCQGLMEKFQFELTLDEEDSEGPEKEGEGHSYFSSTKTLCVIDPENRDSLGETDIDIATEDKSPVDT

SMILES: CCCNC(=O)COc1c(C(=O)Cc2c(Cl)cncc2Cl)ccc(OC)c1OC
- % Survival ([1]; systemic dose 1.0 mg/kg): 100%
- % Efficacy, Cell % Inhibition ([1]; systemic dose 1.0 mg/kg): 67%
- % Efficacy, Protein % Inhibition ([1]; systemic dose 1.0 mg/kg): 29%

SMILES: O=C(Nc1c(Cl)cncc1Cl)c1ccc(OC(F)F)c(OCC2CC2)c1 [roflumilast]
- IC50 [2]: 1.8 nM

SMILES: N#Cc1ccc(Oc2ccc3c(c2)COB3O)cc1 [drawing 23]
- % Survival ([1]; systemic dose 1.0 mg/kg): 100%
- % Efficacy, Cell % Inhibition ([1]; systemic dose 1.0 mg/kg): 51%
- % Efficacy, Protein % Inhibition ([1]; systemic dose 1.0 mg/kg): 13%

SMILES: CCOc1cc([C@@H](CS(C)(=O)=O)N2C(=O)c3cccc(NC(C)=O)c3C2=O)ccc1OC [drawing 22]
- % Survival ([1]; systemic dose 10.0 mg/kg): 100%
- % Efficacy, Cell % Inhibition ([1]; systemic dose 10.0 mg/kg): 94%
- % Efficacy, Protein % Inhibition ([1]; systemic dose 10.0 mg/kg): 58%

SMILES: N#Cc1ccc(Oc2ccc3c(c2)COB3O)cc1 [AN-2728]
- IC50 [3]: 26 nM
- day of statistically significant improvement in SCORAD clinical scores [4]: ≥ 9 days
- IC50 [2]: 170 nM

SMILES: CS(=O)(=O)Nc1ccc(C(=O)O[C@@H](Cc2c(Cl)c[n+]([O-])cc2Cl)c2ccc(OC(F)F)c(OCC3CC3)c2)cc1OCC1CC1 [Compound A]
- IC50 [3, 12]: 0.04 nM
- reduction of SCORAD clinical scores earlier than benchmark AN-2728 ([4]; topical 0.01-1% w/v, compared to AN-2728): 4 days
- day of statistically significant improvement in SCORAD clinical scores [4]: ≤ 5 days
- animals with resolved lesions ([4]; topically applied at 0.01%): approximately 60%
- animals with resolved lesions ([4]; topically applied at 1%): approximately 90%
- concentration at 2 h ([5]; mouse, in vivo, delivered topically to the skin, 2 hours post final dose, read-out: plasma concentrations): < 5 ng/mL
- plasma concentrations ([5]; topical 0.01%, 8 of the 10 animals): below quantifiable limits
- oral bio-availability [6]: does not show any oral bio-availability
- percentage of cells in the aqueous humor [1, 13]: significantly reduced
- percentage of protein in the aqueous humor [1, 13]: significantly reduced
- % Survival ([1]; systemic dose 0.1 mg/kg): 100%
- % Efficacy, Cell % Inhibition ([1]; systemic dose 0.1 mg/kg): 95%
- % Efficacy, Protein % Inhibition ([1]; systemic dose 0.1 mg/kg): 67%
- psoriatic plaques [7]: almost completely disappeared
- gritty, itchy and burning sensations [8]: significant reduction
- tear production [8]: enough of an increase in tear production that the artificial tear drops are needed much less frequently
- rosacea affected areas [9]: noticeable clearing of the affected areas
- redness and eruptions on the skin ([10]; after approximately 3 weeks): significant reduction
- scratching ([10]; within the first week): noticeable reduction in scratching
- selectivity for PDE4 versus other PDEs [11]: greater than 50 fold
- IC50 [2]: 0.03 nM

SMILES: O=C(Nc1c(Cl)cncc1Cl)c1ccc(OC(F)F)c(OCC2CC2)c1 [drawing 21]
- % Survival ([1]; systemic dose 0.3 mg/kg): 100%
- % Efficacy, Cell % Inhibition ([1]; systemic dose 0.3 mg/kg): 97%
- % Efficacy, Protein % Inhibition ([1]; systemic dose 0.3 mg/kg): 77%

SMILES: COc1cccc(Nc2c(C(N)=O)cnc3c(C)cc(S(=O)(=O)c4cccc(C(=O)N(C)C)c4)cc23)c1 [GSK-256066]
- IC50 [3, 12]: 0.007 nM
- safety in the ocular inflammation model ([1]; rat, in vivo): resulted in death of the animals
- % Survival ([1]; systemic dose 1.0 mg/kg): 0%
- IC50 [2]: 0.01 nM

SMILES: CCOc1cc([C@@H](CS(C)(=O)=O)N2C(=O)c3cccc(NC(C)=O)c3C2=O)ccc1OC [apremilast]
- animals with resolved lesions ([4]; topically applied at 1%): approximately 40%
- IC50 [2]: 110 nM
